Assay results as given in patent publication US11981658B2, “Substituted aminopyridine compounds as EGFR inhibitors” (YUHAN CORPORATION, priority 2021, dated 2024).
Where two headings read alike, the source gives them in different places.

Assays:
EGFR Del19/T790M/C797S = EGFR Del19/T790M/C797S (Homo sapiens, UniProt P00533, C797S/DEL746-750/T790M); test: Biochemical EGFR kinase inhibition assay (Lance Ultra TR-FRET), triple mutant del19/T790M/C797S
Method: (§1) Biochemical EGFR kinase assays were conducted using Lance Ultra time-resolved fluorescence resonance energy transfer (TR-FRET) technology from Perkin-Elmer. Compounds of the invention were initially diluted to 20 mM in 100% DMSO for storage and made into kinase buffer solution to create a compound concentration ranging from 0.003 μM and 10 μM.
(§2) Each kinase reactions were incubated at room temperature for 1 hour and then stopped by the addition of 4 μL of stop solution (10 mM EDTA). The specific Europium-labeled-anti-phosphopeptide antibody (PerkinElmer, AD0069) diluted in LANCE detection buffer was then added to a final concentration of 2 nM. After 60 minutes incubation at room temperature the LANCE signal was measured on an EnVision Multilabel Reader (Perkin-Elmer). Excitation wavelength was set at 320 nm and emission monitored at 615 nm (donor) and 665 nm (acceptor). The IC50 values were determined using GraphPad prism software (GraphPad Software, Inc., San Diego, CA, USA).

EGFR wildtype (WT) = EGFR wildtype (WT) (Homo sapiens, UniProt P00533); test: Biochemical EGFR kinase inhibition assay (Lance Ultra TR-FRET), wildtype
Sequence of EGFR wildtype (WT) (P00533 25-1210): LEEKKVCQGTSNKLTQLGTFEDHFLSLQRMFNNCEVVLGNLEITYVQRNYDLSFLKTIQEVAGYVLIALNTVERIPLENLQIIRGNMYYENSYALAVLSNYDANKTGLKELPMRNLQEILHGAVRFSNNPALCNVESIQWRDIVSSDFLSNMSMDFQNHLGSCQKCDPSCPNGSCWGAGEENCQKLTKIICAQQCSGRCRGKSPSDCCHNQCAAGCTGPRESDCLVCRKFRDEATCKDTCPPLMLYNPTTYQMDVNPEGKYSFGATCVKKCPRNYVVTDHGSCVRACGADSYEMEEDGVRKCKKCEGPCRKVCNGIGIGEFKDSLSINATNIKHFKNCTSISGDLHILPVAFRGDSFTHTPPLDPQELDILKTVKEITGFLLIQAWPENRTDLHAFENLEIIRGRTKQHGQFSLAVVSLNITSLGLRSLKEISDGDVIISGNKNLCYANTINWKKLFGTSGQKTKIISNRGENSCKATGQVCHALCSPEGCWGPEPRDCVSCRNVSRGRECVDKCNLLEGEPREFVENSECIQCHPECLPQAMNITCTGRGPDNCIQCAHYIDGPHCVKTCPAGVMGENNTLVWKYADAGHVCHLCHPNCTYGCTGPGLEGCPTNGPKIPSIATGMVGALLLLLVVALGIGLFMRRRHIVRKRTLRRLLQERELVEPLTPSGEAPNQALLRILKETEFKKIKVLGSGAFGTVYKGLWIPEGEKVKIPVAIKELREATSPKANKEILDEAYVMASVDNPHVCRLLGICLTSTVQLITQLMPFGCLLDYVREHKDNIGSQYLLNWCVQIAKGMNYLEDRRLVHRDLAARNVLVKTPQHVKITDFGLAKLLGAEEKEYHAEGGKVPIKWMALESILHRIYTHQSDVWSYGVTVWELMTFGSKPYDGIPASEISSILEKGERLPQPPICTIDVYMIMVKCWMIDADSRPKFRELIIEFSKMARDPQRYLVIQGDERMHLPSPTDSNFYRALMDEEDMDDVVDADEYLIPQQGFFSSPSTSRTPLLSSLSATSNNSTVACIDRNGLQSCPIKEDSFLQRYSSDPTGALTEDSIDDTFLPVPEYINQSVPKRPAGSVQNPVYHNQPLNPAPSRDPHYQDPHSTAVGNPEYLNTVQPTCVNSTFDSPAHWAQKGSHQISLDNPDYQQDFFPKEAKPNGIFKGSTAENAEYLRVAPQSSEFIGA
Method: as §1, §2

EGFR Del19/C797S = EGFR Del19/C797S (Homo sapiens, UniProt P00533, C797S/DEL746-750); test: Biochemical EGFR kinase inhibition assay (Lance Ultra TR-FRET), double mutant del19/C797S
Sequence of EGFR Del19/C797S (P00533 with tags, fused parts or gaps DEL746-750/C797S): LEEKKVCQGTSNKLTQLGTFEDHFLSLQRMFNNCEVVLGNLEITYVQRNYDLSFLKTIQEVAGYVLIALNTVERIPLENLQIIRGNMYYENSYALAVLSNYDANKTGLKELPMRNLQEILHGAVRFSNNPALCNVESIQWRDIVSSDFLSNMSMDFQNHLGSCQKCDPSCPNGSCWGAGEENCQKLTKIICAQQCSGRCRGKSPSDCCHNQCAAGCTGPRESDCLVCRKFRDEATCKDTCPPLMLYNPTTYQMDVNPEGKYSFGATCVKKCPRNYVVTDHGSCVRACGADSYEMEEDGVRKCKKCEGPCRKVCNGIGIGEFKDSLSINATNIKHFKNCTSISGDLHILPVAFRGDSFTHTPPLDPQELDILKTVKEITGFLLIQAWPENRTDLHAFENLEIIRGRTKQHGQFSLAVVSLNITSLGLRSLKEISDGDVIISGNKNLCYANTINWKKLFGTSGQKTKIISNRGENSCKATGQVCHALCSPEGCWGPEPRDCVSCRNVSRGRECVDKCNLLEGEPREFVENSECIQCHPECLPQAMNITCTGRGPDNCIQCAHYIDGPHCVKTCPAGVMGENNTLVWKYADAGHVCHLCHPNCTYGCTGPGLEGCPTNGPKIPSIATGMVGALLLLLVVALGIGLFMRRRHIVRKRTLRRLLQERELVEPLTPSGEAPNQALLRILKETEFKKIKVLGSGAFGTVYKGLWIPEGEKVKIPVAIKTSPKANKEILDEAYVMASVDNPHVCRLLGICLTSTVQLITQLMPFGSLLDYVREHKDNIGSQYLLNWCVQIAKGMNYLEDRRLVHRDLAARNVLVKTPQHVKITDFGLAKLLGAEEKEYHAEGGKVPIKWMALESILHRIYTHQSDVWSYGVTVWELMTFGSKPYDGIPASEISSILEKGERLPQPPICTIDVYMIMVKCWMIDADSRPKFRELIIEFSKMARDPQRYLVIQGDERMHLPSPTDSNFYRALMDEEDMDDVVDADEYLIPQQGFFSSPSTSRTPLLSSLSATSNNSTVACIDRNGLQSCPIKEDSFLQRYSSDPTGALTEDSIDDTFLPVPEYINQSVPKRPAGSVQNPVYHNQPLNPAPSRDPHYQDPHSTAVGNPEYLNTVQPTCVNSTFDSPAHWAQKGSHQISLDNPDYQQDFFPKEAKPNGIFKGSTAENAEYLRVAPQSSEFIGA
Method: as §1, §2

EGFR L858R/T790M/C797S = EGFR L858R/T790M/C797S (Homo sapiens, UniProt P00533, C797S/L858R/T790M); test: Biochemical EGFR kinase inhibition assay (Lance Ultra TR-FRET), triple mutant L858R/T790M/C797S
Sequence of EGFR L858R/T790M/C797S (P00533 25-1210 T790M/C797S/L858R): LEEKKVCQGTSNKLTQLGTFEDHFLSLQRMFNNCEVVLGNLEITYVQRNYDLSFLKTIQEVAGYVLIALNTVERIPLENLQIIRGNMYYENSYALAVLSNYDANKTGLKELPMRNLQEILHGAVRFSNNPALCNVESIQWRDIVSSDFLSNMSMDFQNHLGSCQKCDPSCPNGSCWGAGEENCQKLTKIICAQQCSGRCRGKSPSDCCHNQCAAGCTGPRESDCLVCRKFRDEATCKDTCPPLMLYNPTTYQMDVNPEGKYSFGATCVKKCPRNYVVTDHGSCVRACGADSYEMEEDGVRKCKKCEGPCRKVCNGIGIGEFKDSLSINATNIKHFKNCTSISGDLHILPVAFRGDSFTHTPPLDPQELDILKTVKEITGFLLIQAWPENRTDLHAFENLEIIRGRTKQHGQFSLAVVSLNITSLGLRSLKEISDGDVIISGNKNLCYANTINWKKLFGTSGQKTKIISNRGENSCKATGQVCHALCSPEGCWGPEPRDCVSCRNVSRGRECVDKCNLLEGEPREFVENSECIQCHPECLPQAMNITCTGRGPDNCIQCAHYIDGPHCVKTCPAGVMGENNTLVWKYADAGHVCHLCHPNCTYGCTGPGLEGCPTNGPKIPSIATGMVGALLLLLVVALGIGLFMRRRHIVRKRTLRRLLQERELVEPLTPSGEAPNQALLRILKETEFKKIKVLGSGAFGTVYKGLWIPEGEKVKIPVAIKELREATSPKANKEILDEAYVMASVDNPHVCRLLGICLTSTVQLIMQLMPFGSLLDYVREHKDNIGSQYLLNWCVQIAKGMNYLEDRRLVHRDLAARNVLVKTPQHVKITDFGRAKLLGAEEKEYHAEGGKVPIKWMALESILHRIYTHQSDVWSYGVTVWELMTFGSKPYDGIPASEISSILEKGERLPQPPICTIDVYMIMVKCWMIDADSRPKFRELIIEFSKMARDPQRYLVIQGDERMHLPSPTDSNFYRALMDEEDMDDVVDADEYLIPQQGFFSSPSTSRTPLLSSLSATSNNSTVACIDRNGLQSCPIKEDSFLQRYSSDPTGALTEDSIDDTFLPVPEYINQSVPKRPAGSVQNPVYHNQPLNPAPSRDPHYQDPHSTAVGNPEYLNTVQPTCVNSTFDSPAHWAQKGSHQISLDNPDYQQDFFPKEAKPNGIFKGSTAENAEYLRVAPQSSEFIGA
Method: as §1, §2

[1] = Km ATP, read-out: IC50 Del19/T790M/C797S (nM) Km ATP
[2] = Km ATP, read-out: IC50 WT (nM) Km ATP
[3] = Km ATP, read-out: IC50 Del19/C797S (nM) Km ATP
[4] = IC50 Del19/T790M/C797S (nM), 100 μM ATP
[5] = IC50 Del19/C797S (nM), 100 μM ATP
[6] = IC50 L858R/T790M/C797S (nM), 100 μM ATP
[7] = Km ATP, read-out: IC50 L858R/T790M/C797S (nM) Km ATP
[8] = ATP at Km, read-out: IC50 Del19/T790M/C797S (nM), Km ATP
[9] = ATP at Km, read-out: IC50 WT (nM), Km ATP
[10] = ATP at Km, read-out: IC50 Del19/C797S (nM), Km ATP

Sequence of EGFR Del19/T790M/C797S (P00533 with tags, fused parts or gaps DEL746-750/T790M/C797S): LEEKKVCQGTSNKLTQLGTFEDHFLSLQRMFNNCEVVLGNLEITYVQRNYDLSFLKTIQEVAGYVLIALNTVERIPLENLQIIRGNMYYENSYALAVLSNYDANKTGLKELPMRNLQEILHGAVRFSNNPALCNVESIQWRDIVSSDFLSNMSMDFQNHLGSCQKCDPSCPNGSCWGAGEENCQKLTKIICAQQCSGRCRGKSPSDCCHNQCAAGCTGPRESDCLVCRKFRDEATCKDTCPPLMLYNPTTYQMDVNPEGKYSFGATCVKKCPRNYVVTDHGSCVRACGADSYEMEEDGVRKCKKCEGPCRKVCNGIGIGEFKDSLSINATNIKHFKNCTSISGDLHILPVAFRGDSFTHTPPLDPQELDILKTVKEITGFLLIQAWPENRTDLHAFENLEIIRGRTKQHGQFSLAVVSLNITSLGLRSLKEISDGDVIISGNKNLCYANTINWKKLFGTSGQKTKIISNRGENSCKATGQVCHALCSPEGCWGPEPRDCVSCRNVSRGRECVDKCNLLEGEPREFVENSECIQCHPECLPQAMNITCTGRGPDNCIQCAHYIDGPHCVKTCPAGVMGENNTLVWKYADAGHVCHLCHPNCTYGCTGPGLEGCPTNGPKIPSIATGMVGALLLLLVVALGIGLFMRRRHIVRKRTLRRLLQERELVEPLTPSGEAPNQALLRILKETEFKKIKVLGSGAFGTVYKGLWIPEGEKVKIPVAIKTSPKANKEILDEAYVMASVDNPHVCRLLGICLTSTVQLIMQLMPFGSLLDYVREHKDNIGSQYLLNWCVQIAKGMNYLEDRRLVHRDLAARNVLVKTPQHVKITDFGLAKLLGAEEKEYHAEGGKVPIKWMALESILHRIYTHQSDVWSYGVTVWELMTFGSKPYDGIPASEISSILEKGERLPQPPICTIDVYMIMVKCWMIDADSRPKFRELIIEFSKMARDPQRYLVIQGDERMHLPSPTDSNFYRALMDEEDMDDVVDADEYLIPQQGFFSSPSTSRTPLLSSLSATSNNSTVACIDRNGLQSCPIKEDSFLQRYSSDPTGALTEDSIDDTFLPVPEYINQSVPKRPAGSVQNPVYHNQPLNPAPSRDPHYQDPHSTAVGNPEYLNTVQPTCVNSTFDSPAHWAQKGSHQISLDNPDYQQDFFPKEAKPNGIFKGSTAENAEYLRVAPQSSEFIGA

| SMILES | IC50 (EGFR Del19/T790M/C797S; [1]) [nM] | IC50 (EGFR wildtype (WT); [2]) [nM] | IC50 (EGFR Del19/C797S; [3]) [nM] | IC50 (EGFR Del19/T790M/C797S; [4]) [nM] | IC50 (EGFR wildtype (WT); IC50 WT (nM), 100 μM ATP) [nM] | IC50 (EGFR Del19/C797S; [5]) [nM] | IC50 (EGFR L858R/T790M/C797S; [6]) [nM] | IC50 (EGFR L858R/T790M/C797S; [7]) [nM] | IC50 (EGFR Del19/T790M/C797S; [8]) [nM] | IC50 (EGFR wildtype (WT); [9]) [nM] | IC50 (EGFR Del19/C797S; [10]) [nM] |
| --- | --- | --- | --- | --- | --- | --- | --- | --- | --- | --- | --- |
| CCS(=O)(=O)N1CCN(c2cc(Nc3ccnc(-c4cnn(S(=O)(=O)C5CC5)c4)n3)ncc2C#Cc2cnn(C)c2)CC1 [Example 3, 2-(1-(Cyclopropylsulfonyl)-1H-pyrazol-4-yl)-N-(4-(4-(ethylsulfonyl)piperazin-1-yl)-5-((1-methyl-1H-pyrazol-4-yl)ethynyl)pyridin-2-yl)pyrimidin-4-amine] | 6.6 | 3830 | 240 | – | – | – | – | – | – | – | – |
| O=S(=O)(C1CC1)n1cc(-c2nccc(Nc3cc(N4CCN(CCO)CC4)c(C#Cc4cnn(CCF)c4)cn3)n2)cn1 [Example 16, 2-(4-(2-((2-(1-(Cyclopropylsulfonyl)-1H-pyrazol-4-yl)pyrimidin-4-yl)amino)-5-((1-(2-fluoroethyl)-1H-pyrazol-4-yl)ethynyl)pyridin-4-yl)piperazin-1-yl)ethan-1-ol] | 4.5 | 145 | 68.6 | 3.3 | > 10000 | 165 | 10.1 | – | – | – | – |
| CC(C)Nc1cc(Nc2ccnc(-c3cnn(S(=O)(=O)C4CC4)c3)n2)ncc1C#Cc1cnn(C)c1 [Example 18, N^2-(2-(1-(Cyclopropylsulfonyl)-1H-pyrazol-4-yl)pyrimidin-4-yl)-N^4-isopropyl-5-((1-methyl-1H-pyrazol-4-yl)ethynyl)pyridine-2,4-diamine] | 2.2 | 213 | 35.5 | 1.6 | > 10000 | 47.3 | 1.1 | 3.3 | – | – | – |
| CC(C)Nc1cc(Nc2ccnc(-c3cnn(S(=O)(=O)C4CC4)c3)n2)ncc1C#Cc1cnn(C(C)C)c1 [Example 19, N^2-(2-(1-(Cyclopropylsulfonyl)-1H-pyrazol-4-yl)pyrimidin-4-yl)-N^4-isopropyl-5-((1-isopropyl-1H-pyrazol-4-yl)ethynyl)pyridine-2,4-diamine] | 4.4 | 1680 | 41.8 | 5.4 | > 10000 | 140 | 3.7 | 2.3 | – | – | – |
| CC(C)Nc1cc(Nc2ccnc(-c3cnn(S(=O)(=O)C4CC4)c3)n2)ncc1C#Cc1cccnc1 [Example 21, N^2-(2-(1-(Cyclopropylsulfonyl)-1H-pyrazol-4-yl)pyrimidin-4-yl)-N^4-isopropyl-5-(pyridin-3-ylethynyl)pyridine-2,4-diamine] | 0.8 | 374 | 34.3 | – | – | – | – | 1.8 | – | – | – |
| COCCC#Cc1cnc(Nc2ccnc(-c3cnn(S(=O)(=O)C4CC4)c3)n2)cc1NC(C)C [Example 22, N^2-(2-(1-(Cyclopropylsulfonyl)-1H-pyrazol-4-yl)pyrimidin-4-yl)-N^4-isopropyl-5-(4-methoxybut-1-yn-1-yl)pyridine-2,4-diamine] | 2.8 | 630 | 122 | – | – | – | – | 5.4 | – | – | – |
| CCC(C)Nc1cc(Nc2ccnc(-c3cnn(S(=O)(=O)C4CC4)c3)n2)ncc1C#Cc1cnn(C)c1 (stereo not shown) [Example 24, N^4-(sec-Butyl)-N^2-(2-(1-(cyclopropylsulfonyl)-1H-pyrazol-4-yl)pyrimidin-4-yl)-5-((1-methyl-1H-pyrazol-4-yl)ethynyl)pyridine-2,4-diamine] | 2.7 | 462 | 32.9 | – | – | – | – | 4.4 | – | – | – |
| CCC(C)Nc1cc(Nc2ccnc(-c3cnn(S(=O)(=O)C4CC4)c3)n2)ncc1C#Cc1cnn(C(C)C)c1 (stereo not shown) [Example 25, N^4-(sec-Butyl)-N^2-(2-(1-(cyclopropylsulfonyl)-1H-pyrazol-4-yl)pyrimidin-4-yl)-5-((1-isopropyl-1H-pyrazol-4-yl)ethynyl)pyridine-2,4-diamine] | 6.9 | 915 | 105 | – | – | – | – | 6.5 | – | – | – |
| CCC(C)Nc1cc(Nc2ccnc(-c3cnn(S(=O)(=O)C4CC4)c3)n2)ncc1C#Cc1cnn(CCF)c1 (stereo not shown) [Example 26, N^4-(sec-Butyl)-N^2-(2-(1-(cyclopropylsulfonyl)-1H-pyrazol-4-yl)pyrimidin-4-yl)-5-((1-(2-fluoroethyl)-1H-pyrazol-4-yl)ethynyl)pyridine-2,4-diamine] | 3.1 | 545 | 58.1 | – | – | – | – | 3.6 | – | – | – |
| CN(CCO)c1cc(Nc2ccnc(-c3cnn(S(=O)(=O)C4CC4)c3)n2)ncc1C#Cc1cnn(C)c1 [Example 37, 2-((2-((2-(1-(Cyclopropylsulfonyl)-1H-pyrazol-4-yl)pyrimidin-4-yl)amino)-5-((1-methyl-1H-pyrazol-4-yl)ethynyl)pyridin-4-yl)(methyl)amino)ethan-1-ol] | 20.2 | 435 | – | – | > 10000 | 870 | – | – | – | – | – |
| CN(CCO)c1cc(Nc2ccnc(-c3cnn(S(=O)(=O)C4CC4)c3)n2)ncc1C#Cc1cnn(CCF)c1 [Example 38, 2-((2-((2-(1-(Cyclopropylsulfonyl)-1H-pyrazol-4-yl)pyrimidin-4-yl)amino)-5-((1-(2-fluoroethyl)-1H-pyrazol-4-yl)ethynyl)pyridin-4-yl)(methyl)amino)ethan-1-ol] | 17.6 | 368 | – | – | > 10000 | 464 | – | – | – | – | – |
| CCC(C)Oc1cc(Nc2ccnc(-c3cnn(S(=O)(=O)C4CC4)c3)n2)ncc1C#Cc1cnn(C(C)C)c1 (stereo not shown) [Example 57, N-(4-(sec-Butoxy)-5-((1-isopropyl-1H-pyrazol-4-yl)ethynyl)pyridin-2-yl)-2-(1-(cyclopropylsulfonyl)-1H-pyrazol-4-yl)pyrimidin-4-amine] | 13.9 | – | 493 | – | – | – | – | 26.1 | – | – | – |
| CC(C)Nc1cc(Nc2ccnc(-c3cnn(S(=O)(=O)C4CC4)c3)n2)ncc1C#CC(C)(C)O [Example 204, 4-(6-((2-(1-(Cyclopropylsulfonyl)-1H-pyrazol-4-yl)pyrimidin-4-yl)amino)-4-(isopropylamino)pyridin-3-yl)-2-methylbut-3-yn-2-ol] | – | – | – | – | > 10000 | 187 | – | – | 22.7 | 264 | – |
| CC(C)Nc1cc(Nc2ccnc(-c3cnn(S(=O)(=O)C4CC4)c3)n2)ncc1C#Cc1csc(C2CC2)n1 [Example 205, N^2-(2-(1-(Cyclopropylsulfonyl)-1H-pyrazol-4-yl)pyrimidin-4-yl)-5-((2-cyclopropylthiazol-4-yl)ethynyl)-N^4-isopropylpyridine-2,4-diamine] | – | – | – | – | – | – | – | – | 18.3 | 587 | 265 |
| CC(C)Nc1cc(Nc2ccnc(-c3cnn(S(=O)(=O)C4CC4)c3)n2)ncc1C#CC1CCOCC1 [Example 206, N^2-(2-(1-(Cyclopropylsulfonyl)-1H-pyrazol-4-yl)pyrimidin-4-yl)-N^4-isopropyl-5-((tetrahydro-2H-pyran-4-yl)ethynyl)pyridine-2,4-diamine] | – | – | – | – | – | – | – | – | 3.5 | 201 | 69.1 |
| CC(C)n1cc(C#Cc2cnc(Nc3ccnc(-c4cnn(S(=O)(=O)C5CC5)c4)n3)cc2-c2cnn(C3CC3)c2)cn1 [Example 236, N-(4-(1-cyclopropyl-1H-pyrazol-4-yl)-5-((1-isopropyl-1H-pyrazol-4-yl)ethynyl)pyridin-2-yl)-2-(1-(cyclopropylsulfonyl)-1H-pyrazol-4-yl)pyrimidin-4-amine] | 11.3 | – | 359 | – | – | – | – | 45.3 | – | – | – |
